In EP0265185A2, “Cephalosporins, processes for their preparation and pharmaceutical compositions containing them” (BEECHAM GROUP PLC, priority 1986, dated 1988):
Converted amounts (≈) assume the structure as drawn. Structures can show the parent of a compound that is named as a salt. Where two headings read alike, the source gives them in different places.

How the values were obtained:
[1] = test system: Pseudomonas aeruginosa 10662; assay: Minimum inhibitory concentration by serial dilution in agar; assay type: cell-based
Method: (§1) Minimum inhibitory Concentration (MIC) values of compounds of the invention against Enterobacter cloacae P99 and Pseudomonas aeruginosa 10662 were determined by serial dilution in agar. The plates were inoculated with 104 colony forming units and incubated overnight at 37°C. The MIC values recorded in Tables 1 and 2 were the lowest concentration of antibiotic to inhibit growth.

Enterobacter cloacae P99 = assay: as above; assay type: cell-based
Method: as §1

[2] = Pseudomonas aeruginosa 10662, serial dilution in agar, inoculated with 104 colony forming units, incubated overnight at 37°C, lowest concentration to inhibit growth, read-out: MIC

How did the MIC [1, 2] turn out when CCN1CCN(C(=O)N[C@@H](C(=O)N[C@]2(NC=O)C(=O)N3C(C(=O)O)=C(COC(C)=O)CS[C@@H]32)c2ccccc2)C(=O)C1=O [Compound B, 7β-[D-2-[(4-ethyl-2,3-dioxopiperazin-1-yl)carbonylamino]-2-phenylacetamido]-7α-formamidocephalosporanic acid, sodium salt, reference compound] was run?
Its MIC is 16 µg/mL.

What about the MIC (Enterobacter cloacae P99) of the same molecule?
Its MIC is 16 µg/mL.

With CO/N=C(\C(=O)N[C@@H]1C(=O)N2C(C(=O)O)=C(COC(C)=O)CS[C@H]12)c1csc(N)n1 [Compound A, cefotaxime, reference compound] as the molecule, how does the MIC [1, 2] read?
The MIC was 16 µg/mL (≈ 35.1 µM).

And the MIC (Enterobacter cloacae P99)?
Its MIC is at least 128 µg/mL.

Which results are given for CCN1CCN(C(=O)N[C@@H](C(=O)N[C@]2(NC=O)C(=O)N3C(C(=O)[O-])=C(CNC(=O)/C=C/c4ccc(OC(C)=O)c(OC(C)=O)c4)CS[C@@H]32)c2ccccc2)C(=O)C1=O.[Na+] [Example 6, Sodium (6R,7R)-3-[(E)-3,4-Diacetoxycinnamoyl]aminomethyl-7-[(R)-2-(4-ethyl-2,3-dioxopiperazin-1-ylcarbonylamino)-2-phenylacetamido]-7-formamido-ceph-3-em-4-carboxylate]?
MIC ([1]; Pseudomonas aeruginosa, 10662): 0.12 µg/mL; MIC (Enterobacter cloacae P99): 0.5 µg/mL

How did the MIC ([1]; Pseudomonas aeruginosa, 10662) turn out when CCN1CCN(C(=O)N[C@@H](C(=O)N[C@]2(NC=O)C(=O)N3C(C(=O)[O-])=C(CN=[N+]=[N-])CS[C@@H]32)c2ccccc2)C(=O)C1=O.[Na+] [Example 3, Sodium (6R,7R)-3-Azidomethyl-7-[(R)-2-(4-ethyl-2,3-dioxopiperazin-1-ylcarbonylamino)-2-phenylacetamido]-7-formamidoceph-3-em-4-carboxylate] was run?
Its MIC is 4 µg/mL.

What about the MIC (Enterobacter cloacae P99) of the same molecule?
Its MIC is 4 µg/mL.

CO/N=C(\C(=O)N[C@@H]1C(=O)N2C(C(=O)[O-])=C(COC(=O)c3ccc(O)c(O)c3)CS[C@H]12)c1csc(N)n1.[Na+] [Example 10, Sodium (6R,7R)-7-[2-(2-amino-4-thiazolyl)-2-((Z)-methoxyimino)acetamido]-3-(3,4-dihydroxybenzoyloxy)methylceph-3-em-4-carboxylate] was tested. Which MIC ([1]; Pseudomonas aeruginosa, 10662) did it give?
The MIC was 0.12 µg/mL.

And the MIC (Enterobacter cloacae P99)?
Its MIC is 4 µg/mL.

Which results are given for CCN1CCN(C(=O)N[C@@H](C(=O)N[C@]2(NC=O)C(=O)N3C(C(=O)[O-])=C(COC(=O)c4ccc(O)c(O)c4)CS[C@@H]32)c2ccccc2)C(=O)C1=O.[Na+] [Example 1, Sodium (6R,7R)-3-(3,4-Dihydroxybenzoyloxy)methyl-7-[(R)-2-(4-ethyl-2,3-dioxopiperazin-1-yl)carbonylamino-2-phenylacetamido]-7-formamidoceph-3-em-4-carboxylate]?
MIC ([1]; Pseudomonas aeruginosa, 10662): ≤ 0.03 µg/mL; MIC (Enterobacter cloacae P99): 0.12 µg/mL

How did the MIC ([1]; Pseudomonas aeruginosa, 10662) turn out when CCN1CCN(C(=O)N[C@@H](C(=O)N[C@]2(NC=O)C(=O)N3C(C(=O)[O-])=C(CNC(=O)c4ccc(O)c(O)c4)CS[C@@H]32)c2ccccc2)C(=O)C1=O.[Na+] [Example 7, Sodium (6R,7R)-3-(3,4-Dihydroxybenzoyl)aminomethyl7-[(R)-2-(4-ethyl-2,3-dioxopiperazin-1-ylcarbonylamino) -2-phenylacetamido]-7-formamido-ceph-3-em-4-carboxylate] was run?
Its MIC is at most 0.03 µg/mL.

What about the MIC (Enterobacter cloacae P99) of the same molecule?
Its MIC is 0.25 µg/mL.
